Laboratory results published in patent US20070155771A1, “Methods and means for treating protein conformational disorders” (priority 2003, published 2007).

Legend:
human A53T α-synuclein = experiment: α-Synuclein degradation in inducible PC12 cell lines (western blot), A53T; type: cell-based, rat; conditions: 10 mM 3MA, 200 nM bafilomycin A1; 48 hours
From the text: Human α-synuclein with a HA tag at the N-terminus and a 6His tag at the C-terminus was amplified from pHM6α-synuclein constructs (Furlong, R. A. et a; 1 (2000) Biochem. J. 346, 577581) and inserted into pTRE2 hyg vector (Clontech) using Nhe I/Sal I sites. Constructs were confirmed by sequencing before use. The pTRE2 hygα-synuclein construct and pTettTS (Clontech) were cotransfected into PC12 TetOn cells (Clontech), using Lipofectamine (Invitrogen) and Plus Reagent (Invitrogen). Single colonies were isolated using cloning cylinders (Sigma) and cells were grown and tested for α-synuclein expression upon induction. Cell lines were subjected to a further round of purification from single colonies to ensure that lines were pure. […]
(§1) Each lane was loaded with protein from a similar number of cells, based on cell counting at the time of seeding. Proteins were transferred onto Hybond ECL nitrocellulose membrane (Amersham). α-Synuclein was detected with an antiHA monoclonal antibody (Covance) at 1:1000 dilution with 4-18 hours incubation. HRP conjugated antimouse antibody (Amersham) at 1:2000 dilution was then added to blots and antibody was detected using ECL blotting reagents (Amersham) and Hyperfilm ECL (Amersham). […]

human A30P α-synuclein = experiment: α-Synuclein degradation in inducible PC12 cell lines (western blot), A30P; type: cell-based, rat; conditions: 10 mM 3MA, 200 nM bafilomycin A1; for α-synuclein levels, mitotic A30P lines: 48 hours; for fold increase in α-synuclein levels (densitometry as a function of tubulin) vs control cells, A30P: +/− SE, significant
From the text: (§2) Human α-synuclein with a HA tag at the N-terminus and a 6His tag at the C-terminus was amplified from pHM6α-synuclein constructs (Furlong, R. A. et a; 1 (2000) Biochem. J. 346, 577581) and inserted into pTRE2 hyg vector (Clontech) using Nhe I/Sal I sites. Constructs were confirmed by sequencing before use. The pTRE2 hygα-synuclein construct and pTettTS (Clontech) were cotransfected into PC12 TetOn cells (Clontech), using Lipofectamine (Invitrogen) and Plus Reagent (Invitrogen). Single colonies were isolated using cloning cylinders (Sigma) and cells were grown and tested for α-synuclein expression upon induction. Cell lines were subjected to a further round of purification from single colonies to ensure that lines were pure.
(§3) PC12 cells were grown in Dulbecco's modified eagle's medium (DMEM, Sigma) supplemented with 10% horse serum (Sigma), 5% fetal bovine serum (Sigma), 100 U/ml penicillin/streptomycin, 2 mM L-glutamine, […] G418 (Invitrogen) and […] hygromycin B (Calbiochem) at 37° C., 10% CO2. To induce differentiation, cells were grown in media containing 1% horse serum and 100 ng/ml nerve growth factor (2.5S, Upstate Biotechnology) and incubated for about 5 days. Cells were induced to express synuclein with […] doxycycline (Sigma).
(§4) Cells were induced for 24 hours and then washed twice with media to remove doxycycline. Then cells were incubated in […] media containing either 10 mM 3-methyladenine (3MA, Sigma), 200 nM bafilomycin A1 (Sigma), […] rapamycin (Sigma), […] lactacystin (Sigma), […] epoxomicin (Affinity Research Products Ltd) or carrier controls (water or DMSO (Sigma)). 3MA and lactacystin were made up in water and rapamycin, epoxomicin and bafilomycin were dissolved in DMSO.
(§5) After 24 hours the media was replaced with fresh media plus drug and after a further 24 hours cell pellets were collected and stored at −80° C. until required.
(§6) Cell pellets were collected and stored at −80° C. until needed. Cells were lysed on ice in lysis buffer: 1% TritonX100, 20 mM TRIS pH7.5, 137 mM NaCl, 1 mM EGTA, 10% glycerol, 1.5 mM MgCl2 and protease inhibitor cocktail (Complete, Roche). […]
as §1

[1] = system: human wild-type α-synuclein; experiment: α-Synuclein degradation in inducible PC12 cell lines (western blot), wildtype; type: cell-based, rat; conditions: 10 mM 3MA, 200 nM bafilomycin A1; for α-synuclein levels, mitotic wildtype lines: 48 hours; for fold increase in α-synuclein levels (densitometry as a function of tubulin) vs control cells, wildtype: +/− SE, did not reach significance
From the text: as §2, §3, §4, §5, §6, §1

[2] = system: human wild-type, A30P and A53T α-synuclein; experiment: α-Synuclein degradation in inducible PC12 cell lines (western blot), all forms; type: cell-based; conditions: for α-synuclein levels: induced 24 hours, doxycycline removed, drug 48 hours, cycling and differentiated cells, 0.2 mg/ml rapamycin, 10 mM lactacystin, 10 mM epoxomicin [sic]
From the text: as §2, §3, §4, §5
Cell pellets were collected and stored at −80° C. until needed. Cells were lysed on ice in lysis buffer: 1% TritonX100, 20 mM TRIS pH7.5, 137 mM NaCl, 1 mM EGTA, 10% glycerol, 1.5 mM MgCl2 and protease inhibitor cocktail (Complete, Roche).
Samples were then mixed with loading buffer: 62.5 mM TRIS pH 6.8, 2% SDS, 10% glycerol, 0.05% bromophenol blue, 100 mM dithiothreitol and 700 mM β-mercaptoethanol and boiled before loading onto 14% denaturing polyacrylamide gels.
Each lane was loaded with protein from a similar number of cells, based on cell counting at the time of seeding. Proteins were transferred onto Hybond ECL nitrocellulose membrane (Amersham). α-Synuclein was detected with an antiHA monoclonal antibody (Covance) at 1:1000 dilution with 4-18 hours incubation. HRP conjugated antimouse antibody (Amersham) at 1:2000 dilution was then added to blots and antibody was detected using ECL blotting reagents (Amersham) and Hyperfilm ECL (Amersham). Blots were stripped and then reprobed for α-tubulin (Sigma) at 1:1000 dilution.
PC12 cell lines as described above (i.e. mitotic and neuronally differentiated wild-type, A53T and A30P PC12 lines) were induced for 24 hours, then doxycycline was removed and the drugs were added for 48 hours. The trends we observed were similar in cells treated with drugs for 24 and 72 hours.

[3] = cited from earlier work
[4] = system: LC3-stained vesicles (autophagosomes); experiment: Number of LC3-stained vesicles (autophagic activity); type: cell-based; conditions: rapamycin treatment
From the text: Immunocytochemistry was done in COS-7 cells fixed with 4% paraformaldehyde (Sigma). Free-floating mouse brain sections from HD transgenic and control brains and paraffin-embedded HD grade III and control brain slices spanning the caudate and putamen regions were used for histochemical analysis. Primary antibodies used: anti-mTOR, anti-phospho-mTOR (Ser2448), anti-4E-BP1, anti-phospho-S6 (Ser235/236) (Cell signalling technologies), anti-LC3 (kind gift from Dr Yoshimori) and anti-huntingtin and anti-ubiquitin (both from Chemicon). Immunohistochemistry was performed by standard fluorescence methods or peroxidase labelling using Vectastain Avidin: Biotinylated enzyme Complex (ABC) kit. Relevant negative controls without the primary antibodies were performed alongside all the experiments.
LC3-II is a form of microtubule associated protein-1 light chain-3 (MAP-LC3), which is associated with mammalian autophagosomes (Kabeya, Y. et al. Embo J 19, 5720-5728 (2000)). […] While this effect was subtle, it was consistent and reproducible in four independent experiments. In addition, LC3-II increased upon induction of mutant huntingtin fragment expression in the stable PC12 cells, while no difference was seen upon induction of the Q23 cells. Another way one can score autophagic activity is to assess the number of LC3-stained vesicles.

Compound	α-synuclein levels in the A53T lines (human A53T α-synuclein)	α-synuclein levels, mitotic A30P lines (human A30P α-synuclein)	fold increase in α-synuclein levels (densitometry as a function of tubulin) vs control cells, A30P (human A30P α-synuclein) [fold]	α-synuclein levels, mitotic wildtype lines [1]	fold increase in α-synuclein levels (densitometry as a function of tubulin) vs control cells, wildtype [1] [fold]	α-synuclein levels [2]	cell death or overt aggregate formation ([2]; proteasome inhibitors for 48 hours)	water solubility [3]	number of LC3-stained vesicles [4]
Cn1cnc(N)c2ncnc1-2 [3-MA, 3-methyl adenine]	obvious increase	slight changes, at best	1.13	slight changes, at best	1.48	–	–	–	–
CO/C1=C\C(C)=C\[C@@H](C)[C@@H](O)[C@@H](C)C/C(C)=C/C=C/[C@H](OC)[C@@H]([C@@H](C)[C@@H](O)[C@H](C)[C@@]2(O)C[C@@H](O)[C@H](C)[C@@H](C(C)C)O2)OC1=O [BafA1, Bafilomycin A1]	obvious increase	slight changes, at best	1.19	slight changes, at best	1.12	–	–	–	–
CC[C@H](C)[C@H](NC(=O)[C@H]([C@@H](C)CC)N(C)C(C)=O)C(=O)N[C@H](C(=O)N[C@@H](CC(C)C)C(=O)[C@@]1(C)CO1)[C@@H](C)O [epoxomicin]	–	–	–	–	–	increase	did not cause increased cell death or overt aggregate formation	–	–
rapamycin	–	–	–	–	–	significantly reduce	–	poor	marked increase
